Test results reported in ChEMBL document CHEMBL1153691, “2-Deoxyadenylyl-(35)-isodideoxyadenosine, a unique dinucleotide: Synthesis, enzymology, and conformational studies” (Bioorg Med Chem Lett, 1995).

Tests used:
[1] = tested on: bovine spleen phosphodiesterase; assay: Enzymatic stability was assessed with bovine spleen phosphodiesterase (BS PDE) exonuclase; format: ADME, Bos taurus; settings: cattle, bovine spleen phosphodiesterase (BS PDE) exonuclease
[2] = tested on: snake venom phosphodiesterase; assay: Enzymatic stability was assessed with snake venom phosphodiesterase (SV PDE) exonuclase; format: ADME; settings: serpentes, snake venom phosphodiesterase (SV PDE) exonuclease
[3] = target: Human immunodeficiency virus type 1 reverse transcriptase (Human immunodeficiency virus 1, UniProt Q72547); assay: Inhibitory activity against HIV reverse transcriptase (HIV RT)

| Compound | half-life [1] | half-life [2] | Ki [3] |
| --- | --- | --- | --- |
| Nc1ncnc2c1ncn2[C@@H]1CO[C@H](COP(=O)([O-])OC2C[C@H](n3cnc4c(N)ncnc43)OC2CO)C1.[Na+] (stereo not given in full) | 50 min | > 550 min | – |
| Nc1ncnc2c1ncn2[C@H]1C[C@H](OP(=O)(O)OC[C@H]2O[C@@H](n3cnc4c(N)ncnc43)C[C@@H]2O)[C@@H](CO)O1 | 1.5 min | < 1 min | – |
| Nc1ncnc2c1ncn2C1COC(COP(=O)(O)OP(=O)(O)OP(=O)(O)O)C1 (stereo not given) | – | – | 16 nM |
